BigSolDB 2.1

## O=C1OC(=O)c2ccc(Br)c3cccc1c23
In acetic acid, 278.15 K
  solubility (mole fraction): 0.000263
In acetic acid, 283.15 K
  solubility (mole fraction): 0.000316
In acetic acid, 288.15 K
  solubility (mole fraction): 0.000382
In acetic acid, 293.15 K
  solubility (mole fraction): 0.00046
In acetic acid, 298.15 K
  solubility (mole fraction): 0.000565
In acetic acid, 303.15 K
  solubility (mole fraction): 0.000666
In acetone, 278.15 K
  solubility (mole fraction): 0.001
In acetone, 283.15 K
  solubility (mole fraction): 0.00119
In acetone, 288.15 K
  solubility (mole fraction): 0.00138
In acetone, 293.15 K
  solubility (mole fraction): 0.00161
In acetone, 298.15 K
  solubility (mole fraction): 0.00192
In acetone, 303.15 K
  solubility (mole fraction): 0.00224
In ethanol, 278.15 K
  solubility (mole fraction): 2.66e-05
In ethanol, 283.15 K
  solubility (mole fraction): 3.65e-05
In ethanol, 288.15 K
  solubility (mole fraction): 5.08e-05
In ethanol, 293.15 K
  solubility (mole fraction): 6.99e-05
In ethanol, 298.15 K
  solubility (mole fraction): 9.53e-05
In ethanol, 303.15 K
  solubility (mole fraction): 0.000131
In methanol, 278.15 K
  solubility (mole fraction): 4.62e-05
In methanol, 283.15 K
  solubility (mole fraction): 6.41e-05
In methanol, 288.15 K
  solubility (mole fraction): 8.62e-05
In methanol, 293.15 K
  solubility (mole fraction): 0.000118
In methanol, 298.15 K
  solubility (mole fraction): 0.00016
In methanol, 303.15 K
  solubility (mole fraction): 0.000212
